Results reported in US20160175802A1, “METHOD FOR MAKING A GAS FROM AN AQUEOUS FLUID,PRODUCT OF THE METHOD, AND APPARATUS THERFOR” (priority 2007, published 2016).

Experiments:
[1] = tested on: goldfish; assay: Fish growth in home aquariums; type: in vivo; settings: SG Gas bubbled into aquarium for thirty days vs air
Description: Fish Growth: Two home aquariums were used to hold two respective groups of goldfish. SG Gas was bubbled into one aquarium and the second with air for a period of thirty days.

[2] = pH test; type: physicochemical; settings: distilled water infused with SG Gas (distilled water pH 6.8)
[3] = Total Dissolved Solids after infusion; type: physicochemical; settings: after infusion of SG Gas into distilled water for approximately 11 minutes (start 0.33 ppm)
Description: The resulting ionized or polarized water (“SG Gas-infused Water”) clings longer to a magnet when compared to that of regular water. Absorption over time or saturation graphs to monitor changes in the water properties infused with SG Gas including capacitance levels may be prepared. […] Other measurement: Total Dissolved Solids (TDS) dropped from a start of 0.33 ppm in untreated distilled water to a finish of 0.17 ppm after infusion of SG Gas into distilled water for a period of approximately 11 minutes. A Fluke 189True RMS Multimeter was used to measure drop in capacitance.

[4] = Storage of SG Gas in water; type: physicochemical; settings: polarized water with SG Gas treatment
Description: Storage of SG Gas in Water: The resulting polarized water with SG Gas treatment remains stable and can be stored for 2 years or more. The actual maximum storage time has yet to be observed but in theory, SG Gas should remain permanently stable in the water.

[5] = SG Gas under pressure; type: physicochemical
Description: In an exemplary procedure for compression, SG Gas is discharged from the apparatus into a hose with a compressor attached. We use a Whirlwind Compressor, Model 2200-2 HPE, manufactured by High Pressure Eng. Co. Inc. A canister with pressure gauges is used to fill the chamber with SG Gas, using a hose to transport the SG Gas from the apparatus and compressor into the canister. We use an empty oxygen tank that has been vacuumed to remove any residual oxygen and water. The empty and vacuumed oxygen tank with pressure valve has a manufacturer name of White Martins, ABRE with dimensions of 23″ diameter and 19″ height. SG Gas is placed under pressure in the compression chamber up to and beyond 1,000 psi. for storage of SG Gas.
Analytical Testing and Observations of SG Gas Under pressure Maximum Pressure: SG Gas imploded when pressures exceeded 1,600 psi.
Safe Pressurization: SG Gas remains safe and stable at pressures around 1,000 psi for over 30 days. SG Gas should remain stable under pressure indefinitely, at least for a sufficient period of time to allow said gas to be utilized at time 30-60 days after generation.

- pH [2]: 7.6
- Total Dissolved Solids (TDS) [3]: 0.17 ppm
- storage time over which water remains stable [4]: ≥ 2 years
- Maximum Pressure: pressure above which SG Gas imploded [5]: exceeded 1,600 psi
- time safe and stable under pressure ([5]; pressures around 1,000 psi): over 30 days
Substance: hydroxyhydrogen [SG Gas]
- algae growth in aquarium tank [1]: less algae growth
- growth of goldfish compared with air-aerated aquarium [1]: at least 15%
